Measurements from US5770573A, “CS-1 peptidomimetics, compositions and methods of using the same” (Cytel Corporation, priority 1995, dated 1998).
Square brackets hold non-standard residues; d marks the D form. Peptide text beside a SMILES is read from it. * marks the point of attachment. PhAc = O=C(Cc1ccccc1)*

Tests used:
[1] = tested on: Porcine peripheral blood lymphocytes; assay: In vitro porcine allograft model: transendothelial lymphocyte migration; format: cell-based; settings: 10 μg/ml in the medium; IL-1β-stimulated SMC
Procedure: A similar study was carried out in vitro using porcine coronary artery endothelial cells (EC; as are present in the IEL) and smooth muscle cells (SMC; as are present in the medial layer of the artery). The two cell types were cultured using a membrane transwell system, with the SMC on the bottom layer in M-199 medium (Gibco Labs.). The SMC were stimulated with 100 ng/ml of interleukin-1β (IL-1β) for 24 hours prior to the start of the assay. Porcine peripheral blood lymphocytes were separated by Ficoll-Hypaque, radiolabeled and incubated overnight (about 18 hours) on the EC.
Transendothelial lymphocyte migration in the IL-1β-stimulated SMC was observed as compared to unstimulated SMC (p<0.05).

asthmatic sheep = assay: Treatment of asthmatic sheep (Ascaris suum antigen); format: in vivo; settings: 24 hours after challenge; pre-challenge about 20-23 BU
Procedure: Six asthmatic sheep were treated in a double blind cross-over study. […] This study was carried out generally as described in Abraham et al., J. Clin. Invest., 93:776-787 (1994).
The inhibitor compound used here was Compound ID No. 896.52, N-phenylacetyl-Leu-Asp-Phe-D-Pro-NH2, with a control compound that comprised the previously described compound having the same residues in a scrambled sequence. The vehicle for the nebulized compounds was phosphate-buffered saline. The compounds were administered at a dose of 1 mg/kg each, twice a day for three days prior to challenge, as well as 0.5 hours prior to and four hours post challenge on day 4. Because this was a crossover study, each animal received one or the other treatment, followed by a rest and then the other treatment. Each animal therefore served as its own control.
Post challenge airway responsiveness was also assayed. Here, specific lung resistance, SRL, returned to baseline values 24 hours after challenge, however, the sheep were hyperresponsive to inhaled carbachol at that time.

VLA-4 = VLA-4 (Homo sapiens, UniProt P05556+P13612); assay: In vitro binding inhibition of 51Cr-labeled Jurkat cells to solid phase-bound CS-1 compound (SEQ ID NO:1); format: cell-based; design: inflammatory cells that contain the VLA-4 receptor [Jurkat cells; host or cells: Jurkat (human T lymphoblastic line)
Summary of the method: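 51Cr-labeled human Jurkat cells were preincubated with compound 30 min at about 22° C, then allowed to bind to wells coated with CS-1 peptide or CS-1-OVA for 30 min at 37° C. After washing, bound cells were lysed with SDS and counted. IC50 is the concentration halving binding, normalized to SEQ ID NO: 3.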

[2] = tested on: delayed-type hypersensitivity murine model; assay: Adoptive transfer delayed type hypersensitivity in mice (oxazolone); format: in vivo, mouse; settings: 6 mg/kg/day s.c. by implanted pump for 24 hours; versus saline
Procedure: An adoptive transfer delayed-type hypersensitivity murine model has been developed using splenic T cells primed to oxazolone. This model is described in Elices et al., Clin. Exp. Rheum., 11 (Suppl. 8):577-580 (1993), whose procedures were followed here.
Thus, BALB/c mice were shaved on the belly and painted (50 μl on the belly and 5 μl on each paw) with three percent oxazolone in acetone/olive oil (4:1) at days zero and 1. At day 5, the mice were sacrificed, their spleens removed, and splenic T cells were obtained via nylon wool columns.
Normal saline or saline containing 25×10^6 /animal of the oxazolone-immune T cells were separately injected into naive mice. The mice were then challenged by painting 10 μl of 2 percent oxazolone onto one ear each. All procedures were carried out under sterile conditions and in endotoxin-free buffers.
Prior to challenge or saline injection, the mice were implanted with pumps that subcutaneously administered normal saline, normal saline containing the compound, Compound ID No. 896.52, N-phenylacetyl-Leu-Asp-Phe-D-Pro-NH2, or normal saline containing a compound with a scrambled sequence continually at 6 mg/kg/day for a 24-hour time period. The swelling diameter at the site of challenge or saline injection was measured with a microcaliper 24 hours thereafter.
An expanded study was carried out as described above except that a scrambled compound control was not used as a control for further inhibitor compounds of Table 1 with larger groups of mice. Statistical analyses were carried out versus injection of vehicle alone.

Chain of VLA-4 (P13612 34-1032): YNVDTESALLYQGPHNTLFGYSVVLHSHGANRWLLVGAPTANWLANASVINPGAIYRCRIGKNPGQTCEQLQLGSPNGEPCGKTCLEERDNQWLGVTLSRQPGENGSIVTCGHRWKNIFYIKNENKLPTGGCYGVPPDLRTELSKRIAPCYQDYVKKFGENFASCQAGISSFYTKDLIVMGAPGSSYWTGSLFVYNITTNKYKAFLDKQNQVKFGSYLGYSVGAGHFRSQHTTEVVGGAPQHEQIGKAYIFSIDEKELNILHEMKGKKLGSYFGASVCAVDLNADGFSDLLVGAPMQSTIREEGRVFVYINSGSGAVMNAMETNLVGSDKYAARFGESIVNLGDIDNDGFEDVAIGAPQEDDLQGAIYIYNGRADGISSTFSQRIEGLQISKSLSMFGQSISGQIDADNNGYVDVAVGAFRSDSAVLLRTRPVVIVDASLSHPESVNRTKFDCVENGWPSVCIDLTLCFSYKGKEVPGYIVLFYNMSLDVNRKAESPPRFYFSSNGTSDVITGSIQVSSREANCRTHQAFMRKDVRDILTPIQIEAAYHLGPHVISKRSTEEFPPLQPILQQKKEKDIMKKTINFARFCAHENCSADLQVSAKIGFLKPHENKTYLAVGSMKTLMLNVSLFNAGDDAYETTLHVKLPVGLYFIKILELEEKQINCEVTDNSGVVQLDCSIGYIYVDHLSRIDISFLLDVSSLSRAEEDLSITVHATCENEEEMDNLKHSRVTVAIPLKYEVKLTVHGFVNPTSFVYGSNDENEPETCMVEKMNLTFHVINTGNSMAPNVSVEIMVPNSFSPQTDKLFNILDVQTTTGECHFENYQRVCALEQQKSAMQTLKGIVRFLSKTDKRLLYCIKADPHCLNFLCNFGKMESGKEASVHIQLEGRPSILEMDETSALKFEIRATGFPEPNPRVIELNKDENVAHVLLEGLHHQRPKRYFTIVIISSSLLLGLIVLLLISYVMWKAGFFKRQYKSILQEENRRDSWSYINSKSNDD
Chain of VLA-4 (P05556 21-798): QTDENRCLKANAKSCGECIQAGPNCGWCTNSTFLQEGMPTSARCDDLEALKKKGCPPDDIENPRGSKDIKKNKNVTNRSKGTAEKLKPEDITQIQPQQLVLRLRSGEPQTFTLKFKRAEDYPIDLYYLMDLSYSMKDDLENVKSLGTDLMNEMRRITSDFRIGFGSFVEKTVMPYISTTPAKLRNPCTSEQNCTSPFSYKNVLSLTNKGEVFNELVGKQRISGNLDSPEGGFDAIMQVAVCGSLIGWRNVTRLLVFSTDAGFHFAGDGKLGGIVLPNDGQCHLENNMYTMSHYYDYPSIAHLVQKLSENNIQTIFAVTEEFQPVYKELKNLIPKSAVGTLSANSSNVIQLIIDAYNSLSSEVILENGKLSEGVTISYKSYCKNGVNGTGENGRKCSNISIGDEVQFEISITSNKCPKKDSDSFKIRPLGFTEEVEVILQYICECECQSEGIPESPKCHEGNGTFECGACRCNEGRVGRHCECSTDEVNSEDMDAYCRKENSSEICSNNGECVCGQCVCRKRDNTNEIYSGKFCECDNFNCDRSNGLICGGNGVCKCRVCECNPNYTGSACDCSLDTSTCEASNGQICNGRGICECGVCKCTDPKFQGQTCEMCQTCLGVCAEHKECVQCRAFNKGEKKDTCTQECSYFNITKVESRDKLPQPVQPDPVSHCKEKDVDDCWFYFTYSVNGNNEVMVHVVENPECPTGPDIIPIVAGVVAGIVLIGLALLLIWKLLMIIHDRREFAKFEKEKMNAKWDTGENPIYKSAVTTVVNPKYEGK

## CC(C)C[C@H](NC(=O)[C@H](CC(=O)O)NC(=O)Cc1ccccc1)C(=O)N[C@@H](Cc1ccccc1)C(=O)N1CCC[C@@H]1C(N)=O [Compound ID No. 1066.02, N-phenylacetyl-Asp-Leu-Phe-D-Pro-NH2, reference compound] (PhAc-DLF[dP]-NH2)
[1]
  reduction of lymphocyte migration: did not reduce migration
Asthmatic sheep
  PC400, carbachol dosage to increase SRL 4-fold: about 12 BU
VLA-4; binding inhibition potency relative to standard compound of SEQ ID NO:3 = 1 (normalized IC50), about one-tenth or less assigned zero
  Relative Potency: 0
VLA-4; compared with standard 10-mer of SEQ ID NO:3
  VLA-4 binding inhibition compared in words: no inhibition of VLA-4
[2]
  swelling at challenge site (initial study, FIG. 5): no reduction of inflammation
